What all share (test): NCI anticancer screen, dose series, 48 h
Assay [1] relates to NCI/ADR-RES ovarian.
Assay [2] deals with CCRF-CEM leukemia.
In assay [3] the test system is SK-OV-3 ovarian.
Assay [4] has as its system SK-MEL-28 melanoma.
Assay [5] deals with NCI-H460 lung.
Assay [6] relates to HCT-15 colon.

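These data come from cells grown in 96-well plates and exposed to compound for 48 hours at five concentrations. TGI: total growth inhibition.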

As for `N#C/C(=C\n1ccc(=O)[nH]c1=S)C(N)=O`, the TGI in assay [1], in assay [2], in assay [3], in assay [4], in assay [5] and in assay [6] was over 100 µM each time.

`Cc1ccc2c(c1)[nH]c1cc(C(F)(F)F)ccc1[p+]2=O` (stereo not given): the TGI in assay [1] was over 100 µM; in assay [2], 50.2 µM; in assay [3], over 100 µM; in assay [4], over 100 µM; in assay [5], over 100 µM; in assay [6] it was over 100 µM.

On to `O=C1NC(N/N=C/C(O)C(O)C(O)CO)=N/C1=C\c1ccco1` (stereo not given), for which the TGI in assay [1], in assay [2], in assay [3], in assay [4], in assay [5] and in assay [6] was over 100 µM each time.

Regarding `Cc1ccc([C@H]2CC(=O)C[C@H](c3ccc(C)cc3)C23C(=O)c2ccccc2C3=O)cc1`, the TGI in assay [1] was 30.2 µM; in assay [2] it was 59.9 µM; in assay [3], over 100 µM; in assay [4], over 100 µM; in assay [5] it was over 100 µM; in assay [6] it was over 100 µM.

Consider `O=c1nc2c(c(-c3ccccc3Cl)[nH]1)COC/C2=C\c1ccccc1Cl`, for which the TGI in assay [1], in assay [2], in assay [3], in assay [4], in assay [5] and in assay [6] was over 100 µM in each case.

With `CN(C)Cc1cc(C(=O)/C=C/c2ccccc2Cl)cc(CN(C)C)c1O`, the TGI in assay [1] was determined as 63.6 µM; in assay [2], 8.82 µM; in assay [4], 27.9 µM; in assay [5], 18.5 µM; in assay [6], 36 µM.

Take `O=C1c2ccccc2-c2nc(-c3cccc([N+](=O)[O-])c3)nnc21`: the TGI is 37 µM in assay [1]; over 100 µM in assay [2]; over 100 µM in assay [3]; 24.8 µM in assay [5]; 59.9 µM in assay [6].

For the molecule `CCC1(C)N=C(c2cnccn2)NN1c1ccc(Cl)cc1` (stereo not given), the TGI in assay [1] is over 100 µM; in assay [2] it was 59.9 µM; in assay [3], over 100 µM; in assay [4], over 100 µM; in assay [5] it was over 100 µM; in assay [6] it was over 100 µM.

Take `CC(=O)c1ccc2c3c1[C@@H]1O[C@@H]1c1cccc(c1-3)[C@@H]1O[C@H]21`: the TGI in assay [1] was over 74.6 µM; in assay [2] it was over 100 µM; in assay [3], 76.1 µM; in assay [4], 13 µM; in assay [6], 12.5 µM.

As to `C1CNCCNCCN1`, the TGI in assay [1], in assay [2], in assay [4], in assay [5] and in assay [6] was over 100 µM throughout.

As for `O=c1[nH]nc(Cc2ccc([N+](=O)[O-])cc2)n1CCO`, the TGI in assay [1], in assay [3], in assay [4], in assay [5] and in assay [6] was over 100 µM each time.

In the case of `CCC(C#N)NC(=O)NC(C#N)CC` (stereo not given), the TGI in assay [1], in assay [2], in assay [3], in assay [5] and in assay [6] was over 100 µM throughout.

With `O=C(NCCCCCCNCc1cccc2ccccc12)Nc1cccc2ccccc12`, the TGI in assay [1], in assay [2], in assay [4], in assay [5] and in assay [6] was over 100 µM each time.

Regarding `CCCSc1ccc2[nH]c(/N=C/c3ccco3)cc2c1`, the TGI in assay [1] was over 100 µM; in assay [2], 80 µM; in assay [3], over 100 µM; in assay [4], over 100 µM; in assay [6], over 100 µM.

As for `COC(=O)C1=C2SCc3cccc(c3)CSC3=C(C(=O)OC)SC(=C(S2)S1)S3`, the TGI in assay [2], in assay [3], in assay [4] and in assay [5] was over 100 µM throughout.

Turning to `COC(=O)[C@@H]1CCCN1CCN1CCC[C@H]1C(=O)OC`, the TGI in assay [1], in assay [3], in assay [4], in assay [5] and in assay [6] was over 100 µM each time.

In the case of `Nn1c(CCCCCCCCc2nnc(COc3ccc(Cl)cc3)n2N)nnc1COc1ccc(Cl)cc1`, the TGI in assay [1], in assay [3], in assay [4], in assay [5] and in assay [6] was over 100 µM in each case.

`Cc1cc(C2(O)C=C(C(C)(C)C)C(=O)C(C(C)(C)C)=C2)c(C)cc1C1(O)C=C(C(C)(C)C)C(=O)C(C(C)(C)C)=C1`: the TGI in assay [1], in assay [2], in assay [3], in assay [4] and in assay [6] was over 100 µM throughout.

On to `CC1CCOc2ccc(cc2)C=Nc2ccc(cc2)CCc2ccc(cc2)N=Cc2ccc(cc2)OCC1` (stereo not given), for which the TGI in assay [1], in assay [2], in assay [4], in assay [5] and in assay [6] was over 100 µM each time.

In the case of `Cc1cn(C2CC(n3cc(Cn4cc(Br)c(=O)[nH]c4=O)nn3)C(CO)O2)c(=O)[nH]c1=O` (stereo not given), the TGI in assay [1], in assay [2], in assay [3], in assay [4] and in assay [6] was over 100 µM each time.

For the molecule `Cc1cc(C)cc(Nc2cc(=O)[nH]c(=O)[nH]2)c1`, the TGI in assay [1], in assay [2], in assay [4], in assay [5] and in assay [6] was over 100 µM in each case.

For the molecule `CC1=NN(c2ccc(S(=O)(=O)O)cc2)C2(C1)SCC(=O)N2c1nc2ccccc2s1` (stereo not given), the TGI in assay [1], in assay [3], in assay [4], in assay [5] and in assay [6] was over 100 µM in each case.

The values are drawn from PubChem BioAssay (NCI).
